Assay results taken from PubChem BioAssay (NCI).
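Five compound concentrations were applied to cells in 96-well plates for 48 hours; endpoints were derived by simple linear interpolation of the resulting dose-response curve. At the GI50, growth is halved. At the TGI there is no net growth.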

test system: CAKI-1 renal; experiment: NCI-60 cell line screen, 48 h

| SMILES | TGI [µM] |
| --- | --- |
| C=CCN1C(=O)/C(=C/c2ccccc2)NC1=S | > 100 |

test system: MDA-N; experiment: NCI-60 cell line screen, 48 h

| SMILES | TGI [µM] |
| --- | --- |
| O=[N+]([O-])C(C(Cl)=C(Cl)Cl)=C(N1CCOCC1)N1CCOCC1 | > 100 |
| O=[N+]([O-])c1ccccc1N=Nc1c(O)sc2ccccc12 | > 100 |

test system: T-47D breast; experiment: NCI-60 cell line screen, 48 h

| SMILES | TGI [µM] | GI50 [µM] |
| --- | --- | --- |
| O=[N+]([O-])C(C(Cl)=C(Cl)Cl)=C(N1CCOCC1)N1CCOCC1 | > 100 | – |
| O=[N+]([O-])c1ccccc1N=Nc1c(O)sc2ccccc12 | > 100 | – |
| CC(C)CSc1nc(Nc2ccccc2)c(C#N)c(-c2ccc(F)cc2)n1 | 32.8 | 2.97 |
| COC(=O)[C@]12CCC(C)(C)C[C@H]1C1=CC[C@@H]3[C@@]4(C)C/C(=C/c5cccnc5)C(=O)C(C)(C)[C@@H]4CC[C@@]3(C)[C@]1(C)CC2 | 28 | 2.96 |
| C=CCN1C(=O)/C(=C/c2ccccc2)NC1=S | > 100 | – |

test system: MDA-MB-231 breast; experiment: NCI-60 cell line screen, 48 h

| SMILES | TGI [µM] | GI50 [µM] |
| --- | --- | --- |
| O=[N+]([O-])C(C(Cl)=C(Cl)Cl)=C(N1CCOCC1)N1CCOCC1 | > 100 | – |
| CC(C)CSc1nc(Nc2ccccc2)c(C#N)c(-c2ccc(F)cc2)n1 | 13 | 2.25 |
| COC(=O)[C@]12CCC(C)(C)C[C@H]1C1=CC[C@@H]3[C@@]4(C)C/C(=C/c5cccnc5)C(=O)C(C)(C)[C@@H]4CC[C@@]3(C)[C@]1(C)CC2 | 32.2 | 10.2 |
| C=CCN1C(=O)/C(=C/c2ccccc2)NC1=S | > 100 | – |

test system: MDA-MB-435; experiment: NCI-60 cell line screen, 48 h

| SMILES | TGI [µM] | GI50 [µM] |
| --- | --- | --- |
| O=[N+]([O-])C(C(Cl)=C(Cl)Cl)=C(N1CCOCC1)N1CCOCC1 | > 100 | – |
| O=[N+]([O-])c1ccccc1N=Nc1c(O)sc2ccccc12 | > 100 | – |
| CC(C)CSc1nc(Nc2ccccc2)c(C#N)c(-c2ccc(F)cc2)n1 | 42.2 | 13 |
| COC(=O)[C@]12CCC(C)(C)C[C@H]1C1=CC[C@@H]3[C@@]4(C)C/C(=C/c5cccnc5)C(=O)C(C)(C)[C@@H]4CC[C@@]3(C)[C@]1(C)CC2 | 20 | 5.05 |
| C=CCN1C(=O)/C(=C/c2ccccc2)NC1=S | > 100 | – |

test system: SK-MEL-28 melanoma; experiment: NCI-60 cell line screen, 48 h

| SMILES | TGI [µM] | GI50 [µM] |
| --- | --- | --- |
| O=[N+]([O-])C(C(Cl)=C(Cl)Cl)=C(N1CCOCC1)N1CCOCC1 | > 100 | – |
| O=[N+]([O-])c1ccccc1N=Nc1c(O)sc2ccccc12 | > 100 | – |
| CC(C)CSc1nc(Nc2ccccc2)c(C#N)c(-c2ccc(F)cc2)n1 | 35.5 | 12.2 |
| COC(=O)[C@]12CCC(C)(C)C[C@H]1C1=CC[C@@H]3[C@@]4(C)C/C(=C/c5cccnc5)C(=O)C(C)(C)[C@@H]4CC[C@@]3(C)[C@]1(C)CC2 | 20 | 6.89 |
| C=CCN1C(=O)/C(=C/c2ccccc2)NC1=S | > 100 | – |

test system: SNB-19 CNS; experiment: NCI-60 cell line screen, 48 h

| SMILES | TGI [µM] | GI50 [µM] |
| --- | --- | --- |
| O=[N+]([O-])C(C(Cl)=C(Cl)Cl)=C(N1CCOCC1)N1CCOCC1 | > 100 | – |
| O=[N+]([O-])c1ccccc1N=Nc1c(O)sc2ccccc12 | > 100 | – |
| CC(C)CSc1nc(Nc2ccccc2)c(C#N)c(-c2ccc(F)cc2)n1 | 13.2 | 2.45 |
| COC(=O)[C@]12CCC(C)(C)C[C@H]1C1=CC[C@@H]3[C@@]4(C)C/C(=C/c5cccnc5)C(=O)C(C)(C)[C@@H]4CC[C@@]3(C)[C@]1(C)CC2 | 77.4 | 15.1 |
| C=CCN1C(=O)/C(=C/c2ccccc2)NC1=S | > 100 | – |

test system: M14 melanoma; experiment: NCI-60 cell line screen, 48 h

| SMILES | TGI [µM] | GI50 [µM] |
| --- | --- | --- |
| O=[N+]([O-])C(C(Cl)=C(Cl)Cl)=C(N1CCOCC1)N1CCOCC1 | > 100 | – |
| O=[N+]([O-])c1ccccc1N=Nc1c(O)sc2ccccc12 | > 100 | – |
| CC(C)CSc1nc(Nc2ccccc2)c(C#N)c(-c2ccc(F)cc2)n1 | 21 | 6 |
| COC(=O)[C@]12CCC(C)(C)C[C@H]1C1=CC[C@@H]3[C@@]4(C)C/C(=C/c5cccnc5)C(=O)C(C)(C)[C@@H]4CC[C@@]3(C)[C@]1(C)CC2 | 13.4 | 3.63 |
| C=CCN1C(=O)/C(=C/c2ccccc2)NC1=S | > 100 | – |

test system: NCI/ADR-RES ovarian; experiment: NCI-60 cell line screen, 48 h

| SMILES | GI50 [µM] | TGI [µM] |
| --- | --- | --- |
| CC(C)CSc1nc(Nc2ccccc2)c(C#N)c(-c2ccc(F)cc2)n1 | 4.87 | 25.3 |
| COC(=O)[C@]12CCC(C)(C)C[C@H]1C1=CC[C@@H]3[C@@]4(C)C/C(=C/c5cccnc5)C(=O)C(C)(C)[C@@H]4CC[C@@]3(C)[C@]1(C)CC2 | 6.75 | 32.5 |
| C=CCN1C(=O)/C(=C/c2ccccc2)NC1=S | – | > 100 |

test system: ACHN renal; experiment: NCI-60 cell line screen, 48 h

| SMILES | TGI [µM] | GI50 [µM] |
| --- | --- | --- |
| O=[N+]([O-])C(C(Cl)=C(Cl)Cl)=C(N1CCOCC1)N1CCOCC1 | > 100 | – |
| O=[N+]([O-])c1ccccc1N=Nc1c(O)sc2ccccc12 | > 100 | – |
| CC(C)CSc1nc(Nc2ccccc2)c(C#N)c(-c2ccc(F)cc2)n1 | 1.47 | 0.403 |
| COC(=O)[C@]12CCC(C)(C)C[C@H]1C1=CC[C@@H]3[C@@]4(C)C/C(=C/c5cccnc5)C(=O)C(C)(C)[C@@H]4CC[C@@]3(C)[C@]1(C)CC2 | 24.5 | 8.05 |
| C=CCN1C(=O)/C(=C/c2ccccc2)NC1=S | > 100 | – |

test system: NCI-H460 lung; experiment: NCI-60 cell line screen, 48 h

| SMILES | TGI [µM] | GI50 [µM] |
| --- | --- | --- |
| O=[N+]([O-])c1ccccc1N=Nc1c(O)sc2ccccc12 | > 100 | – |
| CC(C)CSc1nc(Nc2ccccc2)c(C#N)c(-c2ccc(F)cc2)n1 | 12.1 | 0.806 |
| COC(=O)[C@]12CCC(C)(C)C[C@H]1C1=CC[C@@H]3[C@@]4(C)C/C(=C/c5cccnc5)C(=O)C(C)(C)[C@@H]4CC[C@@]3(C)[C@]1(C)CC2 | 26.6 | 5.53 |
| C=CCN1C(=O)/C(=C/c2ccccc2)NC1=S | > 100 | – |

test system: HOP-92 NSCLC; experiment: NCI-60 cell line screen, 48 h

| SMILES | TGI [µM] | GI50 [µM] |
| --- | --- | --- |
| O=[N+]([O-])c1ccccc1N=Nc1c(O)sc2ccccc12 | > 100 | – |
| CC(C)CSc1nc(Nc2ccccc2)c(C#N)c(-c2ccc(F)cc2)n1 | 2.63 | 0.605 |
| COC(=O)[C@]12CCC(C)(C)C[C@H]1C1=CC[C@@H]3[C@@]4(C)C/C(=C/c5cccnc5)C(=O)C(C)(C)[C@@H]4CC[C@@]3(C)[C@]1(C)CC2 | 8.41 | 1.87 |
| C=CCN1C(=O)/C(=C/c2ccccc2)NC1=S | > 100 | – |

test system: K-562 leukemia; experiment: NCI-60 cell line screen, 48 h

| SMILES | TGI [µM] | GI50 [µM] |
| --- | --- | --- |
| O=[N+]([O-])C(C(Cl)=C(Cl)Cl)=C(N1CCOCC1)N1CCOCC1 | > 100 | – |
| O=[N+]([O-])c1ccccc1N=Nc1c(O)sc2ccccc12 | > 100 | – |
| CC(C)CSc1nc(Nc2ccccc2)c(C#N)c(-c2ccc(F)cc2)n1 | > 100 | 5.31 |
| COC(=O)[C@]12CCC(C)(C)C[C@H]1C1=CC[C@@H]3[C@@]4(C)C/C(=C/c5cccnc5)C(=O)C(C)(C)[C@@H]4CC[C@@]3(C)[C@]1(C)CC2 | > 100 | 3.2 |
| C=CCN1C(=O)/C(=C/c2ccccc2)NC1=S | > 100 | – |

test system: NCI-H23 lung; experiment: NCI-60 cell line screen, 48 h

| SMILES | TGI [µM] | GI50 [µM] |
| --- | --- | --- |
| O=[N+]([O-])C(C(Cl)=C(Cl)Cl)=C(N1CCOCC1)N1CCOCC1 | > 100 | – |
| O=[N+]([O-])c1ccccc1N=Nc1c(O)sc2ccccc12 | > 100 | – |
| CC(C)CSc1nc(Nc2ccccc2)c(C#N)c(-c2ccc(F)cc2)n1 | 28.7 | 6.35 |
| COC(=O)[C@]12CCC(C)(C)C[C@H]1C1=CC[C@@H]3[C@@]4(C)C/C(=C/c5cccnc5)C(=O)C(C)(C)[C@@H]4CC[C@@]3(C)[C@]1(C)CC2 | 29.8 | 8.05 |
| C=CCN1C(=O)/C(=C/c2ccccc2)NC1=S | > 100 | – |

test system: DU-145 prostate; experiment: NCI-60 cell line screen, 48 h

| SMILES | TGI [µM] | GI50 [µM] |
| --- | --- | --- |
| O=[N+]([O-])C(C(Cl)=C(Cl)Cl)=C(N1CCOCC1)N1CCOCC1 | > 100 | – |
| O=[N+]([O-])c1ccccc1N=Nc1c(O)sc2ccccc12 | > 100 | – |
| CC(C)CSc1nc(Nc2ccccc2)c(C#N)c(-c2ccc(F)cc2)n1 | 27.7 | 11 |
| COC(=O)[C@]12CCC(C)(C)C[C@H]1C1=CC[C@@H]3[C@@]4(C)C/C(=C/c5cccnc5)C(=O)C(C)(C)[C@@H]4CC[C@@]3(C)[C@]1(C)CC2 | > 100 | 8.86 |
| C=CCN1C(=O)/C(=C/c2ccccc2)NC1=S | > 100 | – |

test system: SK-MEL-2 melanoma; experiment: NCI-60 cell line screen, 48 h

| SMILES | TGI [µM] | GI50 [µM] |
| --- | --- | --- |
| O=[N+]([O-])C(C(Cl)=C(Cl)Cl)=C(N1CCOCC1)N1CCOCC1 | > 100 | – |
| O=[N+]([O-])c1ccccc1N=Nc1c(O)sc2ccccc12 | > 100 | – |
| CC(C)CSc1nc(Nc2ccccc2)c(C#N)c(-c2ccc(F)cc2)n1 | 30.2 | 13.7 |
| COC(=O)[C@]12CCC(C)(C)C[C@H]1C1=CC[C@@H]3[C@@]4(C)C/C(=C/c5cccnc5)C(=O)C(C)(C)[C@@H]4CC[C@@]3(C)[C@]1(C)CC2 | 32.1 | 11.6 |
| C=CCN1C(=O)/C(=C/c2ccccc2)NC1=S | > 100 | – |

test system: SN12C renal; experiment: NCI-60 cell line screen, 48 h

| SMILES | TGI [µM] | GI50 [µM] |
| --- | --- | --- |
| O=[N+]([O-])C(C(Cl)=C(Cl)Cl)=C(N1CCOCC1)N1CCOCC1 | > 100 | – |
| CC(C)CSc1nc(Nc2ccccc2)c(C#N)c(-c2ccc(F)cc2)n1 | 3.14 | 0.597 |
